How the values were obtained:
[1] = molecular target: T1, recombinant protease activated receptor 1 extracellular domain (rPAR1EC) (Homo sapiens, UniProt P25116); assay: Inhibition of RPPGF-biotin binding to rPAR1EC; conditions: 5 mM peptide, 50 μM RPPGF-biotin (FIG. 7); listed in decreasing order
T1 construct: A portion of the extracellular domain of human PAR1 (Ala^26-Ser^99) (rPAR1EC) was expressed in Escherichia coli; His10-DDDDK (pET19b) (N); made in house; host or cells: E. coli BL21(DE3), pET19b
T1 sequence (P25116 26-99): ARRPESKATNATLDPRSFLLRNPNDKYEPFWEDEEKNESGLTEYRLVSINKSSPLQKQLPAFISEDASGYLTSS

[2] = tested on: normal human citrated plasma; assay: prothrombin time (PT); type: biochemical; conditions: normal human plasma; p<0.05
Description: The influence of the various peptide formulations used in the present invention on established coagulation-based assays was determined. The activated partial thromboplastin time (APTT) is performed by mixing 0.05 ml normal human citrated plasma with 0.05 ml activated partial thromboplastin reagent purchased from Organon Teknika, Research Triangle Park, N.C. in the absence or presence of a peptide inhibitor. After incubation for 5 min at 37° C., the mixture is recalcified with 0.05 ml of 30 mM calcium chloride and the time to clot formation is measured in an Amelung KC4A instrument (Sigma Chemical Corp, St. Louis, Mo.) (Hasan et al. Thrombosis and Haemostasis. 82, 1182–1187 (1999)). The prothrombin time (PT) is performed by mixing 0.05 ml normal human citrated plasma with 0.05 ml Simplastin (Organon Teknika, Research Triangle Park, N.C.) followed by incubation for 3 min at 37° C. in the absence or presence of a peptide inhibitor. At the addition of 0.05 ml of 30 mM calcium chloride, the time to clot formation is measured in an KC4A instrument (Sigma Chemical Corp, St. Louis, Mo.) (Hasan et al. Thrombosis and Haemostasis. 82, 1182–1187 (1999)). The thrombin clotting time (TCT) is performed by adding 0.1 ml normal human citrated plasma in the absence or presence of a peptide inhibitor and 0.05 ml of a α-thrombin solution such that the final concentration of the thrombin in the entire mixture was 1 nM. Upon addition of the thrombin, the time to clot formation is measured in an KC4A instrument (Sigma Chemical Corp, St. Louis, Mo.). In FIG. 5, peptide TH146 produces a significant prolongation (p<0.05) of the activated partial thromboplastin time at 15 μM, of the prothrombin time at 60 μM, and the thrombin clotting time at 15 μM. In FIG. 6, peptide MAP4-TH146 produced a significant prolongation (p<0.05) of the activated partial thromboplastin time at 0.195 μM, of the prothrombin time at 3.125 μM, and the thrombin clotting time at 0.39 μM.

[3] = molecular target: T2, α-thrombin cleavage of recombinant extracellular fragment of human PAR1 (rPAR1EC) (Homo sapiens, UniProt P00734); assay: Inhibition of α-thrombin-induced cleavage of rPAR1EC; type: biochemical; conditions: 1 nM α-thrombin, 15 min, 37° C.
T2 construct: A portion of the extracellular domain of human PAR1 (Ala^26-Ser^99) (rPAR1EC) was expressed in Escherichia coli; with 1 nM of α-thrombin or 0.5 μg/mL thrombocytin (16.7 nM); His10-DDDDK (pET19b) (N); made in house; host or cells: E. coli BL21(DE3), pET19b (rPAR1EC)
Description: Thrombocytin is a snake venom enzyme that activates platelets by cleaving PAR1 at the thrombin cleavage site (Santos et al., FEBS Letters. 18, 3570–3577 (2000)). […] The ability of MAP4-rOicPGF to block thrombocytin cleavage of rPAR1EC was performed as follows. One μg of rPAR1EC in 0.01 mM Tris-HCL, 0.2 M NaCl, pH 8.0 was incubated at 37° C. for 15 min or 45 min with 1 nM of α-thrombin or 0.5 μg/mL thrombocytin (16.7 nM), respectively, in the absence or presence of 0.025 to 1 mM MAP4-rOicPGF. The reaction mixture was separated on SDS-PAGE and stained with Coomassie Brilliant Blue. The cleaved gel images were scanned using the software Scion Image, ScionCorp, Frederick, Md.

PC3 cells = assay: α-thrombin-induced intracellular calcium mobilization in PC3 cells; type: cell-based; conditions: 2 nM α-thrombin
Description: FIG. 13 examines the influence of MAP4-TH146 on thrombin-induced calcium mobilization in two prostate cancer cell lines that functionally express PAR 1. In Panel A, the influence of MAP4-TH146 on 2 nM α-thrombin-induced intracellular calcium mobilization in VCaP cells. Calcium flux is abolished by […]. At 6.25 μM MAP4-TH146, there is full recovery of thrombin-induced calcium flux. In Panel B, the influence of MAP4-TH146 on 2 nM α-thrombin-induced intracellular calcium mobilization in PC3 cells. Calcium flux is abolished by 200 μM MAP4-TH146. At 1.56 μM MAP4-TH146, calcium flux recovers.

α-thrombin = α-thrombin (Homo sapiens, UniProt P00734); assay: α-thrombin hydrolysis of chromogenic substrate Sar-Pro-Arg-pNA; type: biochemical; conditions: 1 nM α-thrombin; 0–0.5 mM peptide
Description: FIG. 10 examines the ability of MAP4-TH146 (β-Ala-Lys-2Lys-4(D-Arg-Oic-Pro-Gly-Phe)) to block thrombin or thrombocytin-induced proteolysis of recombinant extracellular fragment of human PAR1 (rPAR1EC). In the upper Panels, 1 μg of rPAR1EC in 10 mM Tris-HCI, 200 mM NaCl, pH 8.0 was incubated at 37° C. for 15 min or 45 min with 1 nM α-thrombin or 0.5 μg/ml (16.7 nM) thrombocytin, respectively, in the absence or presence of increasing concentrations of MAP4-TH146 (0.05 to 1.0 mM)). In the middle Panel, the ability of α-thrombin (1 nM) to hydrolyze the chromogenic substrate Sar-Pro-Arg-pNA in the presence or absence of 0–0.5 mM MAP4-TH146 was determined. In the bottom Panel, the ability of thrombocytin (16.7 nM) to hydrolyze 1 mM H-D-Phe-Pip-Arg-paranitroanilide (S2238) in the presence or absence of 0–1.0 mM MAP4-TH146 was determined. […] Alternatively, in the bottom Panel, MAP4-TH146 inhibits thrombocytin proteolysis of rPAR1EC at concentrations below that necessary to block the proteolytic activity of the enzyme.

Substance: β-Ala-Lys-2Lys-4(D-Arg-Oic-Pro-Gly-Phe) [MAP4-rOicPGF]
- blocking of RPPGF-biotin binding to rPAR1EC by peptides [1]: blocked
- concentration giving significant prolongation of the PT [2]: 3.125 µM
- effect on α-thrombin cleavage of rPAR1EC [3]: inhibits thrombin and thrombocytin cleavage of rPAR1EC
- effect on thrombin-induced calcium flux (PC3 cells; 1.56 μM peptide): recovers
- effect on thrombin-induced calcium flux (PC3 cells; 200 μM peptide): abolished
- effect on α-thrombin hydrolysis of Sar-Pro-Arg-pNA (α-thrombin): directly blocking α-thrombin's proteolytic activity

Source: patent US7074765B2, “Synthetic peptide analogs of Arg-Pro-Pro-Gly-Phe as selective inhibitors of thrombin and thrombin activation of protease activated receptors 1 and 4” (The Regents of the University of Michigan, priority 2003, dated 2006)
